Tests used:
[1] = test system: HIV strain E (clinically isolated, protease mutations); format: cell-based; details: FR=EC50(mutant strain E)/EC50(HIV-1 strain LAI)
Method: (§1) HIV- or mock-infected MT4 cells were incubated for five days in the presence of various concentrations of the inhibitor. […] Cell viability is measured by measuring the concentration of MTT, a yellow, water soluble tetrazolium dye that is converted to a purple, water insoluble formazan in the mitochondria of living cells only. Upon solubilization of the resulting formazan crystals with isopropanol, the absorbance of the solution is monitored at 540 nm. The values correlate directly to the number of living cells remaining in the culture at the completion of the five day incubation. The inhibitory activity of the compound was monitored on the virus-infected cells and was expressed as EC50 and EC90. These values represent the amount of the compound required to protect 50% and 90%, respectively, of the cells from the cytopathogenic effect of the virus. The toxicity of the compound was measured on the mock-infected cells and was expressed as CC50, which represents the concentration of compound required to inhibit the growth of the cells by 50%. The selectivity index (SI) (ratio CC50/EC50) is an indication of the selectivity of the anti-HIV activity of the inhibitor. Wherever results are reported as e.g. pEC50 or pCC50 values, the result is expressed as the negative logarithm of the result expressed as EC50 or CC50 respectively.
(§2) As a measure of the broad spectrum activity of the present compounds, the fold resistance (FR), defined as FR=EC50(mutant strain)/EC50(HIV-1 strain LAI), was determined.

[2] = test system: HIV strain D (clinically isolated, protease mutations); format: cell-based; details: FR=EC50(mutant strain D)/EC50(HIV-1 strain LAI)
Method: as §1, §2

[3] = test system: HIV strain B (clinically isolated, protease mutations); format: cell-based; details: FR=EC50(mutant strain B)/EC50(HIV-1 strain LAI)
Method: as §1, §2

[4] = test system: HIV strain F (clinically isolated, protease mutations); format: cell-based; details: FR=EC50(mutant strain F)/EC50(HIV-1 strain LAI)
Method: as §1, §2

[5] = test system: HIV strain C (clinically isolated, protease mutations); format: cell-based; details: FR=EC50(mutant strain C)/EC50(HIV-1 strain LAI)
Method: as §1, §2

[6] = test system: HIV strain A (clinically isolated, protease mutations); format: cell-based; details: FR=EC50(mutant strain A)/EC50(HIV-1 strain LAI)
Method: as §1, §2

mock-infected MT4 cells = assay: in vitro
Method: as §1, §2

SMILES | E (FR) fold resistance [1] | D (FR) fold resistance [2] | B (FR) fold resistance [3] | F (FR) fold resistance [4] | C (FR) fold resistance [5] | A (FR) fold resistance [6] | Tox (pCC50) (mock-infected MT4 cells)
CC(C)CN(C[C@@H](O)[C@H](Cc1ccccc1)NC(=O)O[C@H]1CO[C@H]2OCC[C@H]21)S(=O)(=O)c1ccc2nc(NCCN(C)C)oc2c1 [Compound 2] | 0.36 | 0.32 | 0.49 | 2.7 | 0.59 | 1.1 | <4
CC(C)CN(C[C@@H](O)[C@H](Cc1ccccc1)NC(=O)O[C@H]1CO[C@H]2OCC[C@H]21)S(=O)(=O)c1ccc2nc(N(C)CCN3CCCC3)oc2c1 [Compound 8] |  | 5.8 | 5.8 | 58 | 1.7 | 30 | <4
COC(=O)Nc1nc2ccc(S(=O)(=O)N(CC(C)C)C[C@@H](O)[C@H](Cc3ccccc3)NC(=O)OCc3cncs3)cc2o1 [Compound 9] | 3.6 | 2.7 | 1.2 | 14.5 | 1.2 | 3.5 | <4
CC(=O)Nc1nc2ccc(S(=O)(=O)N(CC(C)C)C[C@@H](O)[C@H](Cc3ccccc3)NC(=O)OCc3cncs3)cc2o1 [Compound 11] | 4.8 | 10 | 2.1 | 74 | 2.5 | 42 | <4
CCOC(=O)Nc1nc2ccc(S(=O)(=O)N(CC(C)C)C[C@@H](O)[C@H](Cc3ccccc3)NC(=O)OCc3cncs3)cc2o1 [Compound 12] | 2.5 | 4.8 | 1.4 | 15 | 2.5 | 8.5 | <4
CC(C)CN(C[C@@H](O)[C@H](Cc1ccccc1)NC(=O)OCc1cncs1)S(=O)(=O)c1ccc2nc(NC(=O)C3CCC(=O)N3)oc2c1 (some centres unmarked) [Compound 13] | 0.91 | 0.91 | 0.75 | 5.2 | 0.64 | 2.3 | <4
CC(C)CN(C[C@@H](O)[C@H](Cc1ccccc1)NC(=O)OCc1cncs1)S(=O)(=O)c1ccc2nc(NC(=O)c3ccco3)oc2c1 [Compound 14] | 3.1 | 3.7 | 3.8 | 19 | 3.1 | 5.2 | 5.03
CC(C)CN(C[C@@H](O)[C@H](Cc1ccccc1)NC(=O)OCc1cncs1)S(=O)(=O)c1ccc2nc(NC(=O)C3CCN(C)CC3)oc2c1 [Compound 15] | 1.5 | 1.7 | 0.81 | 7.8 | 1.1 | 2.3 | <4
CC(C)CN(C[C@@H](O)[C@H](Cc1ccccc1)NC(=O)OCc1cncs1)S(=O)(=O)c1ccc2nc(NC(=O)c3ccccn3)oc2c1 [Compound 16] | 1.1 | 3.3 | 0.72 | 17 | 0.69 | 3.5 | 4.25
CC(C)CN(C[C@@H](O)[C@H](Cc1ccccc1)NC(=O)OCc1cncs1)S(=O)(=O)c1ccc2nc(NC(=O)c3cccnc3)oc2c1 [Compound 18] | 2.6 | 3.0 | 0.85 | 13 | 1.5 | 2.6 | 4.24
CC(C)CN(C[C@@H](O)[C@H](Cc1ccccc1)NC(=O)OCc1cncs1)S(=O)(=O)c1ccc2nc(NC(=O)CN(C)C)oc2c1 [Compound 19] |  | 2.2 | 0.81 | 17 | 0.91 | 3.0 | <4
CC(C)CN(C[C@@H](O)[C@H](Cc1ccccc1)NC(=O)OCc1cncs1)S(=O)(=O)c1ccc2nc(NC(=O)CN(C)CCN3CCCC3)oc2c1 [Compound 24] | 1.4 | 1.6 | 0.53 | 6.8 | 1.3 | 1.9 | <4
CC(C)CN(C[C@@H](O)[C@H](Cc1ccccc1)NC(=O)OCc1cncs1)S(=O)(=O)c1ccc2nc(NC(=O)CN3CCN(C)CC3)oc2c1 [Compound 25] | 3.9 | 3.9 | 1.3 | 18 | 3.0 | 3.9 | 4.31
CC(C)CN(C[C@@H](O)[C@H](Cc1ccccc1)NC(=O)OCc1cncs1)S(=O)(=O)c1ccc2nc(N(C)C(=O)c3ccccn3)oc2c1 [Compound 26] | 11 | 15 | 2.45 | 59 | 3.4 | 9.3 | 4.14
CC(C)CN(C[C@@H](O)[C@H](Cc1ccccc1)NC(=O)OCc1cncs1)S(=O)(=O)c1ccc2nc(N(C)C(=O)C3CCCN(C)C3)oc2c1 (some centres unmarked) [Compound 27] | 0.85 | 2.9 | 1.00 | 24 | 0.68 | 4.4 | <4
CC(C)CN(C[C@@H](O)[C@H](Cc1ccccc1)NC(=O)OCc1cncs1)S(=O)(=O)c1ccc2nc(N(C)C(=O)C3CCN(C)CC3)oc2c1 [Compound 28] | 1.9 | 2.9 | 0.89 | 23 | 0.51 | 4.4 | <4
CC(C)CN(C[C@@H](O)[C@H](Cc1ccccc1)NC(=O)OCc1cncs1)S(=O)(=O)c1ccc2nc(N(C)C(=O)c3ccnc(Cl)c3)oc2c1 [Compound 29] | 0.87 | 4.9 | 1.4 | 39 | 0.79 | 8.1 | <4
CC(C)CN(C[C@@H](O)[C@H](Cc1ccccc1)NC(=O)OCc1cncs1)S(=O)(=O)c1ccc2nc(N(C)C(=O)C3CCC(=O)N3)oc2c1 (some centres unmarked) [Compound 30] |  |  |  |  |  |  | <4
CC(C)CN(C[C@@H](O)[C@H](Cc1ccccc1)NC(=O)OCc1cncs1)S(=O)(=O)c1ccc2nc(N(C)C(=O)c3ccncc3)oc2c1 [Compound 31] |  | 7.6 | 1.3 | 33 | 1.25 | 9.5 | <4
CC(C)CN(C[C@@H](O)[C@H](Cc1ccccc1)NC(=O)OCc1cncs1)S(=O)(=O)c1ccc2nc(N(C)C(=O)c3cccnc3)oc2c1 [Compound 32] |  | 8.1 | 1.7 | 42 | 1.1 | 8.3 | <4
CC(C)CN(C[C@@H](O)[C@H](Cc1ccccc1)NC(=O)OCc1cncs1)S(=O)(=O)c1ccc2nc(NC(=O)C3CCCN3C)oc2c1 (some centres unmarked) [Compound 34] | 2.3 | 5.8 | 1.4 | 25 | 1.7 | 7.2 | 4.25
CC(C)CN(C[C@@H](O)[C@H](Cc1ccccc1)NC(=O)OCc1cncs1)S(=O)(=O)c1ccc2nc(NC(=O)[C@H]3CCCN3C)oc2c1 [Compound 35] |  | 3.5 | 2.3 | 48 | 1.1 | 13 | 4.26

Reference: US7595334B2, “Broadspectrum 2-(substituted-amino)-benzoxazole sulfonamide HIV protease inhibitors” (Tibotec Pharmaceuticals Ltd., priority 2001, dated 2009)
